Measured values: patent US12576115B2, “Bacterial compositions for treating and preventing halitosis” (Imvela Corp., priority 2023, dated 2026)

Experiments:
[1] = pH reduction of an environment by bacterial strain (Table 1, (b)); conditions: capable of reducing the pH of an environment from 7.5 or higher to less than 7.5
From the text: (§1) Exemplary bacterial strains determined to be capable of (b) reducing the pH of an environment from 7.5 or higher to less than 7.5; (c) reducing the abundance of one or more VSCs in an environment having a pH of less than 7.5; and/or (d) enhances the reduction of one or more VSCs by another bacterial strain in an environment with a pH of 7.5 or higher, are listed below in Table 1.

[2] = system: volatile sulfur compounds (VSCs); assay: VSC reduction in an environment having a pH of less than 7.5 (Table 1, (c)); conditions: capable of reducing the abundance of one or more VSCs in an environment having a pH of less than 7.5
From the text: as §1
Some bacterial strains of compositions, nutritional supplements, dental supplements, and food products were identified based on the ability to reduce the abundance of volatile sulfur compounds (VSCs) in an environment, and/or inhibit the production of VSCs by other microorganisms in the environment. VSCs are associated with the unpleasant odor of breath of subjects with halitosis, and reduction in VSC abundance (e.g., by VSC metabolism or inhibition of VSC production) is expected to alleviate this symptom of halitosis. Non-limiting examples of such VSCs include hydrogen sulfide, methyl mercaptan, and dimethyl sulfide, all of which give off strong and unpleasant odors.

Substance: Bifidobacterium longum
- (b) pH reduction [1]: Yes

Substance: Lactobacillus acidophilus
- (c) VSC reduction [2]: Yes
- (b) pH reduction [1]: Yes

Substance: Pediococcus acidilactici
- (c) VSC reduction [2]: Yes
- (b) pH reduction [1]: Yes
